Measurements: ChEMBL document CHEMBL5584238, “Psammaplin A analogues with modified disulfide bond targeting histone deacetylases: Synthesis and biological evaluation” (Eur J Med Chem, 2024)

How the values were obtained:
Format in all cases: functional, cell-based
HCT-116 = assay: Antiproliferative activity against human HCT-116 cells incubated for 48 hrs by MTT assay; settings: HCT-116, 48 h
EBC-1 = assay: Antiproliferative activity against human EBC-1 cells incubated for 48 hrs by MTT assay; settings: EBC-1, 48 h
NCI-H1581 = assay: Antiproliferative activity against human NCI-H1581 cells incubated for 48 hrs by MTT assay; settings: NCI-H1581, 48 h

IC50 (HCT-116) [µM] | IC50 (NCI-H1581) [µM] | SMILES | IC50 (EBC-1) [µM]
3.52 | 3.75 | CC(C)(CNC(=O)/C(Cc1ccc(O)c(Br)c1)=N/O)SSCCNC(=O)/C(Cc1ccc(O)c(Br)c1)=N/O | > 10
> 10 | > 10 | O=C(NC1CCSSC1)/C(Cc1ccc(O)cc1)=N/O (configuration not stated) | > 10
4.94 | 6.16 | O=C(NCCSSCCNC(=O)/C(Cc1cccs1)=N/O)/C(Cc1cccs1)=N/O | > 10

SMILES | IC50 (HCT-116) [µM] | IC50 (NCI-H1581) [µM] | IC50 (EBC-1) [µM]
O=C(NC1CC[Se]SC1)/C(Cc1ccc(O)cc1)=N/O (configuration not stated) | > 10 | 1.28 | > 10
